Measurements: US20150336919A1, “Sesquiterpene lactone-based pharmaceutical composition for treating gastrointestinal diseases” (CHO DANG PHARM. CO., LTD., priority 2012, published 2015)

Legend:
[1] = tested on: HCl-Ethanol inducing gastritis model; test: HCl-Ethanol inducing gastritis model; format: in vivo, white rats
Method: After white rats have been fasted for 24 hours, CD-101, CD-102 and CD-103 compound have been orally administered according to method disclosed in Mizui et al., Jap. J. Pharmacol. 33: pp. 939-945 (1983). After 1 hour, 1.5 ml of 60% ethanol including 150 mM HCl has been orally administered to each animal. 1 hour later, animals have been sacrificed by cervical dislocation. After removing the stomach, the stomach has been fixed by injection of 13 ml of 2% formalin for 1 hour. After fixed stomach has been spread out, the lesion area has been measured using the photo by digital camera. Computer program Image J 1.38 (NIH, Bethesda, Md.) has been applied for measuring gastric lesion area (mm^2) The lesion inhibition rate has been calculated according to following equation. Further, 50% effective dose (ED50) has been also calculated using regression analysis.
Lesion inhibition rate(%)={gastric lesion area of control group(mm^2)−gastric lesion area of drug administration group(mm^2)}/gastric lesion area of control group(mm^2)×100

[2] = tested on: indomethacin inducing stomach ulcer model; test: Indomethacin inducing stomach ulcer model; format: in vivo, white rats; conditions: oral
Method: After white rats have been fasted for 24 hours, CD-101, CD-102 and CD-103 compound have been orally administered according to method disclosed in Yamasaki et al., Jap. J. Pharmacol. 49: pp. 441-448 (1989). After 1 hour, indomethacin (50 mg/kg) has been orally administered to each animal After fasting for 5 hours, animals have been sacrificed by cervical dislocation. After removing the stomach, the stomach has been fixed by injection of 13 ml of 2% formalin for 1 hour. After fixed stomach has been spread out, the lesion area has been measured using the photo by digital camera. Computer program Image J 1.38 (NIH, Bethesda, Md.) has been applied for measuring gastric lesion area (mm^2) The lesion inhibition rate and 50% effective dose (ED50) have been calculated as the same manner of HCl-EtOH model.

[3] = tested on: Chinese hamster lung (CHL) cell; test: Chromosomal aberration test using Chinese hamster lung (CHL) cell; format: cell-based; conditions: for Chromosomal aberration test result: dose not given
Description: For measuring the induction of chromosomal aberration, the chromosomal aberration test has been carried out using Chinese hamster lung (CHL) cell. 2 kinds of methods have been adopted, such as, metabolic activation method (+S9) using metabolic activation system and direct method (−S9) without metabolic activation system.
For determining the test material reacting concentration, the cell growth inhibition test has been carried out. The test material has been dissolved and diluted in dimethyl sulfoxide (DMSO). Regardless of metabolic activation system, 12 concentration steps (2.43, 4.87, 9.75, 19.5, 39.1, 78.1, 156.3, 312.5, 625, 1250, 2500, 5000 μg/ml) of test material have been prepared. The cells have been cultured for 24 hours as the same way of main test. […] The medium has been further cultured for 18 hours.
Based upon the data of cell growth inhibition test, maximum concentration has been determined when the cell growth has been inhibited up to 50% as the relative cell numbers.
Regardless of metabolic activation system, the test materials have been prepared after 24 hours from the initiation of test. Then, the number of chromosomal aberration has been counted.

[4] = +S9 (metabolic activation method)

CC1=C2C3OC(=O)[C@@H](C)[C@@H]3CC[C@@]2(C)C=CC1=O (stereo partly shown) [reference compound]
Lesion inhibition rate ([1]; Table 2, ineffective compounds, dose not given): no effect

C=C1C(=O)O[C@@H]2[C@@H]3[C@@H](CC[C@@]3(C)O)C(=C)CC[C@@H]12 [CD-102]
inhibition at 1 mg/kg ([2]; Rattus norvegicus, dose 1 mg/kg, read-out: Lesion inhibition rate): 41.6% | inhibition at 3 mg/kg ([2]; Rattus norvegicus, dose 3 mg/kg, read-out: Lesion inhibition rate): 56.1% | inhibition at 10 mg/kg ([2]; Rattus norvegicus, dose 10 mg/kg, read-out: Lesion inhibition rate): 77.2% | 50% effective dose (ED50) ([2]; regression analysis): 1.82 mg/kg | inhibition at 1 mg/kg ([1]; Rattus norvegicus, oral, dose 1 mg/kg, read-out: Lesion inhibition rate): 43% | inhibition at 3 mg/kg ([1]; Rattus norvegicus, oral, dose 3 mg/kg, read-out: Lesion inhibition rate): 70.4% | inhibition at 10 mg/kg ([1]; Rattus norvegicus, oral, dose 10 mg/kg, read-out: Lesion inhibition rate): 94.9% | 50% effective dose (ED50) ([1]; oral, regression analysis): 1.31 mg/kg | Chromosomal aberration test results ([3]; +S9, dose 5 μg/kg): negative | Chromosomal aberration test results ([3]; +S9, dose 20 μg/kg): negative | Cytotoxicity ([3]; CHL cell): neither cytotoxicity | Induction of chromosomal aberration ([3]; CHL cell): do not induce the chromosomal aberration | Chromosomal aberration test results ([3]; −S9, dose 1.25 μg/kg): negative | Chromosomal aberration test results ([3]; −S9, dose 5 μg/kg): negative

C=C1C(=O)O[C@@H]2/C=C(\C)CC/C=C(\C)C[C@@H](OC(C)=O)C12 (stereo partly shown) [reference compound]
Chromosomal aberration test result [3, 4]: positive positive | Chromosomal aberration test result ([3]; −S9 (direct method)): positive positive

C=C1C(=O)O[C@@H]2[C@@H]3[C@@H](CC[C@@]3(C)O)[C@](C)(OC)CC[C@@H]12 [CD-103]
Chromosomal aberration test results ([3]; +S9, dose 2.5 μg/kg): negative | Chromosomal aberration test results ([3]; +S9, dose 5 μg/kg): negative | Induction of chromosomal aberration ([3]; CHL cell): do not induce the chromosomal aberration | Chromosomal aberration test results ([3]; −S9, dose 0.625 μg/kg): negative | Chromosomal aberration test results ([3]; −S9, dose 1.25 μg/kg): negative

CC(=O)O[C@@H]1/C=C(\C)CCC/C(C)=C/[C@H]2OC(=O)[C@H](CN(C)C)C12 (stereo partly shown) [reference compound]
Chromosomal aberration test result [3, 4]: positive positive | Chromosomal aberration test result ([3]; −S9 (direct method)): positive positive

C=C1C(=O)O[C@@H]2[C@@H](O)[C@]3(C)CC[C@H]3[C@](C)(OC)CC[C@@H]12 [CD-101]
Chromosomal aberration test results ([3]; +S9, dose 20 μg/kg): negative | Chromosomal aberration test results ([3]; +S9, dose 40 μg/kg): negative | Induction of chromosomal aberration ([3]; CHL cell): do not induce the chromosomal aberration | Chromosomal aberration test results ([3]; −S9, dose 5 μg/kg): negative

C=C1C(=O)O[C@@H]2/C=C(\C)CCC(O)C(C)(O)C[C@@H](OC(C)=O)C12 (stereo partly shown) [reference compound]
Chromosomal aberration test result [3, 4]: positive positive | Chromosomal aberration test result ([3]; −S9 (direct method)): positive positive

CO[C@@]12[C@H](COC(N)=O)C3=C(C(=O)C(C)=C(N)C3=O)N1C[C@@H]1N[C@@H]12 [Mitomycin C, reference compound]
Chromosomal aberration test results ([3]; −S9, dose 0.5 μg/kg): positive
